Laboratory results as given in ChEMBL document CHEMBL1909046, “DrugMatrix in vitro pharmacology data”.

Legend:
[1] = target: Protein kinase C alpha type (Homo sapiens, UniProt P17252); type: cell-based; details: sf9;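 also: inhibition of PKCalpha kinase activity measured in an enzyme assay with histone as the phosphorylation substrate; in other assays of this panel Not Active means under 50% inhibition at 10 µM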
Melanocortin receptor 5 = Melanocortin receptor 5 (Homo sapiens, UniProt P33032); type: cell membranes, HEK293, Membrane; details: hek293; also: in other assays of this panel Not Active means under 50% inhibition at 10 µM
Melanocortin receptor 5, sequence (P33032 whole entry): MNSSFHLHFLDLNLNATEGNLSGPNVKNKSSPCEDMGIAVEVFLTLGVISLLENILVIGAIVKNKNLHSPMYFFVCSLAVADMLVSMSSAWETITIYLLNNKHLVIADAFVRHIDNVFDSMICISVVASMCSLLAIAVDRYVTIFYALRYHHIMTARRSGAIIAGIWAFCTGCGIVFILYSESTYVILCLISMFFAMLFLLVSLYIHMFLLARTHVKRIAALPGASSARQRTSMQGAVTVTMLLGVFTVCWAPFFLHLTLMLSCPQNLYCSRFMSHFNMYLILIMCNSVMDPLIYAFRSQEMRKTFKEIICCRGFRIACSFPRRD

[2] = DRUGMATRIX: ATPase, Na+/K+ enzyme inhibition (substrate: ATP); type: tissue-based, Sus scrofa, Heart; details: Not Active = under 50% inhibition at 10 µM
[3] = target: T1, Muscarinic acetylcholine receptor M2 (Homo sapiens, UniProt P08172); type: cell membranes, CHO-K1, Membrane; details: cho-k1; also: in other assays of this panel Not Active means under 50% inhibition at 10 µM
T1 sequence (P08172 whole entry): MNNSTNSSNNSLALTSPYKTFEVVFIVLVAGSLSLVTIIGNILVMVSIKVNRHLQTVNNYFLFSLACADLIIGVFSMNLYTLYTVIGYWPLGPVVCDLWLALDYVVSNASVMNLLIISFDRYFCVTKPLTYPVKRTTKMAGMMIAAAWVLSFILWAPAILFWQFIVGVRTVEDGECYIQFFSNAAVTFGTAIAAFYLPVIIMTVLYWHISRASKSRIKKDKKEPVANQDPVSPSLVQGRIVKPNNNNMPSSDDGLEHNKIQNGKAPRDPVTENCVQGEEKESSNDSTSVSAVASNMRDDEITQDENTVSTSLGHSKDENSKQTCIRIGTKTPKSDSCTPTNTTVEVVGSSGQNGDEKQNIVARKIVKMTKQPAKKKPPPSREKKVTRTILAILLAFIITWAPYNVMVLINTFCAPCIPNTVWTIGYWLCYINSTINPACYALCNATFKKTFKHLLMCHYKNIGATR

Melanocortin receptor 4 = Melanocortin receptor 4 (Homo sapiens, UniProt P32245); type: cell membranes, Membrane; details: hek293; also: in other assays of this panel Not Active means under 50% inhibition at 10 µM
Melanocortin receptor 4, sequence (P32245 whole entry): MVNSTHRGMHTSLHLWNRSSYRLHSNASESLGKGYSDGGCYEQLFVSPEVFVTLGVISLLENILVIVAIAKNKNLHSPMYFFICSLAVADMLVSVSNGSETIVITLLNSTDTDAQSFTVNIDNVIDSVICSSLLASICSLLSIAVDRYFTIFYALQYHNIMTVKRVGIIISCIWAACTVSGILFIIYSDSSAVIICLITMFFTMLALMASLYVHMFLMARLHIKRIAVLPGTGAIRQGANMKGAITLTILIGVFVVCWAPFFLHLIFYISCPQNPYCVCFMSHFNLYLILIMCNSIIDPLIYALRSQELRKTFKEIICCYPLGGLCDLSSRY

[4] = target: Protein phosphatase 3 catalytic subunit alpha (Homo sapiens, UniProt Q08209); set-up: species or system Escherichia coli
[5] = target: 5-hydroxytryptamine receptor 1B (Rattus norvegicus, UniProt P28564); type: cell membranes, Wistar, Cerebral cortex, Membrane; also: in other assays of this panel Not Active means under 50% inhibition at 10 µM
5-hydroxytryptamine receptor 1B, sequence (P28564 whole entry): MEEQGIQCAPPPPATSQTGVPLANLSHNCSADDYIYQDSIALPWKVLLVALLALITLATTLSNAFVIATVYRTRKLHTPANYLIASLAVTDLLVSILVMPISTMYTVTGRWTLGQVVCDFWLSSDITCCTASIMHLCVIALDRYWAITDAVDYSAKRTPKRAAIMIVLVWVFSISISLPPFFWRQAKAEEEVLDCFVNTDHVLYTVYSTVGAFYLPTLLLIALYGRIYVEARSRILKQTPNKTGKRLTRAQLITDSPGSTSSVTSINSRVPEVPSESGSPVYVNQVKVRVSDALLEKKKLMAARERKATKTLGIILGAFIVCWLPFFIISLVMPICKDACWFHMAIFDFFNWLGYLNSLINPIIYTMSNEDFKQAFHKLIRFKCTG

[6] = DRUGMATRIX: Phorbol Ester radioligand binding (ligand: [3H] PDBu); type: cell membranes, Mus musculus, ICR, Brain, Membrane; details: Not Active = under 50% inhibition at 10 µM
[7] = target: Aldo-keto reductase family 1 member B1 (Rattus norvegicus, UniProt P07943); type: tissue-based, Lens of camera-type eye
[8] = DRUGMATRIX: Tumor Necrosis Factor (TNF), Non-Selective radioligand binding (ligand: [125I] TNF-alpha); type: cell membranes, Membrane; details: u-937; Not Active = under 50% inhibition at 10 µM
[9] = target: T2, Vasoactive intestinal polypeptide receptor 1 (Homo sapiens, UniProt P32241); type: cell membranes, Membrane; details: ht-29; also: in other assays of this panel Not Active means under 50% inhibition at 10 µM
T2 sequence (P32241 whole entry): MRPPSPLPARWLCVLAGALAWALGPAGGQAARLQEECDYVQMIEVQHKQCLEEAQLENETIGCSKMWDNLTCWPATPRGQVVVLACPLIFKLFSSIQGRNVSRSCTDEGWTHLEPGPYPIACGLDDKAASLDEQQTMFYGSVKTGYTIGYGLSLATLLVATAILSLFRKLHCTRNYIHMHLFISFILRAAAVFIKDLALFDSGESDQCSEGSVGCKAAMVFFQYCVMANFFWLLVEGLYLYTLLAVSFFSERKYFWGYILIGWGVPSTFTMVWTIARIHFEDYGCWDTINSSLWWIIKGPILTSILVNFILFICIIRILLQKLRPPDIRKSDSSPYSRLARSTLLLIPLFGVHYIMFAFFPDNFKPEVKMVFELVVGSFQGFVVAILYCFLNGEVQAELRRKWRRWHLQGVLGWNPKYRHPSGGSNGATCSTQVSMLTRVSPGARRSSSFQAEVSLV

[10] = DRUGMATRIX: GABAA, Muscimol, Central radioligand binding (ligand: [3H] Muscimol); type: cell membranes, Rattus norvegicus, Wistar, Brain, Membrane; details: Not Active = under 50% inhibition at 10 µM
Substance-K receptor = target: T3, Substance-K receptor (Homo sapiens, UniProt P21452); type: cell membranes, CHO, Membrane; details: cho; also: in other assays of this panel Not Active means under 50% inhibition at 10 µM
T3 sequence (P21452 whole entry): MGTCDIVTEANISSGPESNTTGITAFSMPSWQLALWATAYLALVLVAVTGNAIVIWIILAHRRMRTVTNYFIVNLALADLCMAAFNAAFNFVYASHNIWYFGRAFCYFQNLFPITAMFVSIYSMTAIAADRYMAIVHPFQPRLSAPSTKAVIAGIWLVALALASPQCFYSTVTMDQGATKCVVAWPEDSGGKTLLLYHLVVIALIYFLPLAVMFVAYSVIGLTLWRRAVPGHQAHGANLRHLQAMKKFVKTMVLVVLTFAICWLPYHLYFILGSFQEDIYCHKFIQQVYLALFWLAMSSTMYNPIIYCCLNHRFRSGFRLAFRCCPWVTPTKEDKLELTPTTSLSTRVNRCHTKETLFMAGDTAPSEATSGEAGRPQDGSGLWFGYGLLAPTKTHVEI

[11] = DRUGMATRIX: Potassium Channel [KATP] radioligand binding (ligand: [3H] Glyburide); type: cell membranes, Membrane; details: hit-t15; Not Active = under 50% inhibition at 10 µM
[12] = target: T4, Neuropeptide Y receptor type 2 (Homo sapiens, UniProt P49146); type: cell membranes, Membrane; details: kan-ts; also: in other assays of this panel Not Active means under 50% inhibition at 10 µM
T4 sequence (P49146 whole entry): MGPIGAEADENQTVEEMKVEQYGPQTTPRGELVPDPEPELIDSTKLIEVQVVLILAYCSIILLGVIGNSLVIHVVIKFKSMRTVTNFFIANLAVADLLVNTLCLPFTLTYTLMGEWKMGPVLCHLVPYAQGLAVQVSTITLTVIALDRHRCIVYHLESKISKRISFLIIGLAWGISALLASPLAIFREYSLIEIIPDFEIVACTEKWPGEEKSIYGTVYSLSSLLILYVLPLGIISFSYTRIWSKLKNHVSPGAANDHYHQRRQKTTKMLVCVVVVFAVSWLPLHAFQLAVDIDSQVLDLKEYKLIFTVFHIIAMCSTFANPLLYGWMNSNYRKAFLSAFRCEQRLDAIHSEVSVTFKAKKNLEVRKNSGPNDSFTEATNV

Cannabinoid receptor 1 = Cannabinoid receptor 1 (Homo sapiens, UniProt P21554); type: cell membranes, Membrane; details: chem-1; also: in other assays of this panel Not Active means under 50% inhibition at 10 µM
Cannabinoid receptor 1, sequence (P21554 whole entry): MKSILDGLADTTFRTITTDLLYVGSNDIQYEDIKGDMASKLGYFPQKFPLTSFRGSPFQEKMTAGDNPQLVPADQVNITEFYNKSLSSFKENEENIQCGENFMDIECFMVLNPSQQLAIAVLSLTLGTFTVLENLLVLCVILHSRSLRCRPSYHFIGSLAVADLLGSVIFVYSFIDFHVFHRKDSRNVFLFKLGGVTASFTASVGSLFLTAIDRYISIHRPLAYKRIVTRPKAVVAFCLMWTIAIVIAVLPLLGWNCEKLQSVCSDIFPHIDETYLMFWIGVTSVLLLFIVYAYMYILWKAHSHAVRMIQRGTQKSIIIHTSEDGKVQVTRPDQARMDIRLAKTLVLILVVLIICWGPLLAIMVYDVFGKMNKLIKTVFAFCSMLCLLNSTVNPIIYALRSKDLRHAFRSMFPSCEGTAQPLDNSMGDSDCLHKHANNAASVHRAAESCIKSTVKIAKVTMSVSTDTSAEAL

[13] = DRUGMATRIX: Glutamate, Kainate radioligand binding (ligand: [3H] Kainic acid); type: cell membranes, Rattus norvegicus, Wistar, Brain, Membrane; details: Not Active = under 50% inhibition at 10 µM

Cc1ncc([N+](=O)[O-])n1CC(C)O (stereo not given) [SECNIDAZOLE]
Not Active: IC50 [1] | IC50 (Melanocortin receptor 5) | IC50 [2] | Ki [2] | IC50 [3] | IC50 (Melanocortin receptor 4) | IC50 [4] | IC50 [5] | IC50 [6] | Ki [6] | IC50 [7] | IC50 [8] | Ki [8] | IC50 [9] | IC50 [10] | Ki [10] | IC50 (Substance-K receptor) | IC50 [11] | Ki [11] | IC50 [12] | IC50 (Cannabinoid receptor 1) | IC50 [13] | Ki [13]

CN[C@@H]1[C@@H](O)[C@@H](O[C@@H]2[C@@H](O)[C@H](O[C@H]3OC(CN)=CC[C@H]3N)[C@@H](N)C[C@H]2N)OC[C@]1(C)O [SISOMICIN]
Not Active: IC50 [1] | IC50 (Melanocortin receptor 5) | IC50 [2] | Ki [2] | IC50 [3] | IC50 (Melanocortin receptor 4) | IC50 [4] | IC50 [5] | IC50 [6] | Ki [6] | IC50 [7] | IC50 [8] | Ki [8] | IC50 [9] | IC50 [10] | Ki [10] | IC50 (Substance-K receptor) | IC50 [11] | Ki [11] | IC50 [12] | IC50 (Cannabinoid receptor 1) | IC50 [13] | Ki [13]

CC(=O)S[C@@H]1CC2=CC(=O)CC[C@]2(C)[C@H]2CC[C@@]3(C)[C@@H](CC[C@@]34CCC(=O)O4)[C@H]12 [SPIRONOLACTONE]
Not Active: IC50 [1] | IC50 (Melanocortin receptor 5) | IC50 [2] | Ki [2] | IC50 [3] | IC50 (Melanocortin receptor 4) | IC50 [4] | IC50 [5] | IC50 [6] | Ki [6] | IC50 [7] | IC50 [8] | Ki [8] | IC50 [9] | IC50 [10] | Ki [10] | IC50 (Substance-K receptor) | IC50 [11] | Ki [11] | IC50 [12] | IC50 (Cannabinoid receptor 1) | IC50 [13] | Ki [13]

C[C@]12Cc3c[nH]nc3C[C@@H]1CC[C@@H]1[C@@H]2CC[C@@]2(C)[C@H]1CC[C@]2(C)O [STANOZOLOL]
Not Active: IC50 [1] | IC50 (Melanocortin receptor 5) | IC50 [2] | Ki [2] | IC50 [3] | IC50 (Melanocortin receptor 4) | IC50 [4] | IC50 [5] | IC50 [6] | Ki [6] | IC50 [7] | IC50 [8] | Ki [8] | IC50 [9] | IC50 [10] | Ki [10] | IC50 (Substance-K receptor) | IC50 [11] | Ki [11] | IC50 [12] | IC50 (Cannabinoid receptor 1) | IC50 [13] | Ki [13]

CN(N=O)C(=O)N[C@@H](C=O)[C@@H](O)[C@H](O)[C@H](O)CO [STREPTOZOCIN]
Not Active: IC50 [1] | IC50 (Melanocortin receptor 5) | IC50 [2] | Ki [2] | IC50 [3] | IC50 (Melanocortin receptor 4) | IC50 [4] | IC50 [5] | IC50 [6] | Ki [6] | IC50 [7] | IC50 [8] | Ki [8] | IC50 [9] | IC50 [10] | Ki [10] | IC50 (Substance-K receptor) | IC50 [11] | Ki [11] | IC50 [12] | IC50 (Cannabinoid receptor 1) | IC50 [13] | Ki [13]
